Assay results as given in patent US20090215895A1, “Therapeutic and carrier molecules” (PEPLIN BIOLIPIDS PTY LTD, priority 2004, published 2009).
Entries after “also recorded” stand apart in the source; their conditions may differ. Each block holds one molecule with its values, some of them ahead of it.

What was measured:
[1] = tested on: HUVEC; assay: Agonist-enhanced neutrophil adherence to HUVEC; assay type: cell-based, human; conditions: 20 μmol/l, 1 hr pre-treatment, TNF 4 hr
Protocol: FIG. 11 is a representation showing effect of β-oxa; β-thia and natural PUFA on TNF-enhanced neutrophil adherence to HUVEC. HUVEC were pre-treated with the fatty acids (20 μmol/l) for 60 min at 37° C. before being stimulated with TNF (125 U/200 μl medium) for 4 hr at 37° C. The cells were then co-incubated with neutrophils (5×10^5 cells/well) at 37° C. for 30 min and the degree of neutrophil adherence quantitated. The results are expressed as % of control and represent the mean±SEM of three separate experiments each performed in triplicate. * p<0.05, ***p<0.001, for significant differences between pre-treatment with fatty acid and control (one-way analysis of variance followed by the Dunnett test for multiple comparisons).
Adhesion of neutrophils, prepared by the rapid-single-step method (Ferrante et al, J. Immun. Methods 36:109-117, 1980), to HUVEC isolated from umbilical cords was carried out essentially as described (Huang et al, 1997 supra).
The magnitude of the suppressive effect of -MP3 was dependent on-pre-treatment time and concentration with significant effects observed with a pre-treatment time of 1 hr and a concentration of ≧5 μmol/l.

[2] = tested on: IκBα; assay: TNF-induced degradation of IκBα in HUVEC (Western blot); assay type: cell-based; conditions: Homo sapiens, 20 μmol/l, 30 min pre-treatment, TNF 10 min
Protocol: FIG. 17 is a representation showing (A) the effect of MP3 (β-oxa 23:4n-6) and DHA on TNF-induced degradation of IκBα in HUVEC. Cells were pre-treated with the fatty acids (20 μmol/l) for 30 min and then stimulated with TNF (125 U/ml) for 10 min. After cell lysis the proteins were analyzed by Western blots using anti-IκBα antibodies. (B) The effects of β-oxa-23:4n-6 on TNF-induced activation of transcriptional factor, NFκB in HUVEC. Cells were pre-treated with β-oxa-23:4n-6 (20 μmol/l) for 30 min and then stimulated with TNF for 2 hr. After cell lysis, nuclear fractions were prepared, nuclear proteins separated by SDS PAGE (12% w/v gel), transferred to nitrocellulose and probed with an anti-NFκB p65 antibody (Santa Cruz). […] (C) The effect of β-oxa 23:4n-6 on TNF-stimulated activation of IKK. Cells were pre-treated with β-oxa 23:4n-6 (20 μmol/l) for 30 min and then stimulated with TNF for 5 min. After cell lysis IKK was immunoprecipitated with anti-IKKα antibody and kinase activity determined. […]
Proteins (50 μg) were separated by SDS PAGE (12% w/v gel), transferred to nitrocellulose and probed with an anti-NFκB p65 or anti-IκBα antibody (Santa Cruz Biotech, Santa Cruz, Calif.). Immunocomplexes were detected by enhanced chemiluminescence (Hii et al, 1998 supra).

[3] = target: T1, PKC isozyme α (Homo sapiens, UniProt P17252); assay: PMA-induced PKC translocation in HL-60 cells (Western blot); assay type: cell-based; design: key: +++: strong inhibition of PKC activation; −: no inhibition of PKC activation; conditions: 20 μM, 60 min
T1 construct: endogenous in cells; host or cells: HL-60
Protocol: (§1) The effects of nitroanalogs of PUFAs on PKC activation were determined. Lx compounds at a concentration of 20 μM were incubated with the HL-60 cell line (final condition 10^6 cells/ml) for 60 min. PKC activation was then attempted to be induced by PMA. PKC enzyme translocation was quantitated by Western blot.

[4] = target: T2, PKC isozyme δ (Homo sapiens, UniProt Q05655); assay: as above; assay type: cell-based; design: key: +++: strong inhibition of PKC activation; −: no inhibition of PKC activation; conditions: 20 μM, 60 min
T2 construct: endogenous in cells; host or cells: HL-60
Protocol: as §1

[5] = target: T3, PKC isozyme β2 (Homo sapiens, UniProt P05771); assay: as above; assay type: cell-based; design: key: +++: strong inhibition of PKC activation; −: no inhibition of PKC activation; conditions: 20 μM, 60 min
T3 construct: endogenous in cells; host or cells: HL-60
Protocol: as §1

[6] = target: T4, PKC isozyme ε (Homo sapiens, UniProt Q02156); assay: as above; assay type: cell-based; design: key: +++: strong inhibition of PKC activation; −: no inhibition of PKC activation; conditions: 20 μM, 60 min
T4 construct: endogenous in cells; host or cells: HL-60
T4 sequence (Q02156 1-737): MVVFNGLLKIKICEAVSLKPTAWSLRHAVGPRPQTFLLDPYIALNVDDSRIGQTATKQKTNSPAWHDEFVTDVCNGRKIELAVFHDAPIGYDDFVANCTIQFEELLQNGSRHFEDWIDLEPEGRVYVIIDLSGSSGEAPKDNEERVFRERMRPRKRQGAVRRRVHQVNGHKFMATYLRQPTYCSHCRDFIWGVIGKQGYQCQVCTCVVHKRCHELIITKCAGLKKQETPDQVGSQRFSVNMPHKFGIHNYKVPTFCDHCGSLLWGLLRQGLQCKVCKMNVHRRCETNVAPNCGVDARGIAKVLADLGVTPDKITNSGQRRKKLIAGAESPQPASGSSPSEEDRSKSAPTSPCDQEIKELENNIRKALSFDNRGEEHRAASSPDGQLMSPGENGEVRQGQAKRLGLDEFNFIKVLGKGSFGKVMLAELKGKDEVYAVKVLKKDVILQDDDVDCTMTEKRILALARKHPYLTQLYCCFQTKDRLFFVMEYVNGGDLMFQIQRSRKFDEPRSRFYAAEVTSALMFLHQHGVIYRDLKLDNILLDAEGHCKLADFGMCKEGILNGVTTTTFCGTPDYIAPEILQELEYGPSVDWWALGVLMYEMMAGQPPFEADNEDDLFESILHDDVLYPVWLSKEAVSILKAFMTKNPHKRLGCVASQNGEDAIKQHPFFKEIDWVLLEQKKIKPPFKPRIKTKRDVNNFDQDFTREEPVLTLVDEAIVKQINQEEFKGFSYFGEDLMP
Protocol: as §1

[7] = tested on: cancer cells; assay: Killing of cancer cells; assay type: cell-based
[8] = PQ (phenylquinolic acid) writhing test; assay type: in vivo; conditions: intraperitoneal, 30 min before pain stimulus
Protocol: (§2) Investigations of the effects of PT2 on pain induced by phenylquinolic acid (PQ writhing) and formalin have been made. In both the PQ writhing test (FIG. 3) and the formalin algesia test (FIG. 4), PT2 administered by intraperitoneal inoculation reduced pain and compared favourably with pain reduction by aspirin (oral, 100 mg/kg). In these tests, the EPUFA was administered 30 min before the pain stimulus and effects recorded over the following 20 min.

[9] = tested on: neutrophil NADPH oxidase; assay: Neutrophil respiratory burst (NADPH oxidase activation, chemiluminescence); assay type: cell-based, human; conditions: 20 μM, 10 min, lucigenin-dependent chemiluminescence
Protocol: The structure of PT2 is shown in (c) above. In this screening assay, neutrophils were prepared from the blood of healthy volunteers. Freshly collected blood was layered onto a Hypaque-Ficoll medium of density 1.114 and centrifuged at 400 g for 30 mins at room temperature. After centrifugation, the leukocytes resolved into two distinct bands, with neutrophils being present in the second band (Ferrante and Thong, J. Immun. Methods 48:81-85, 1982).
Activation of the neutrophil NADPH oxidase was measured by lucigenin-dependent chemiluminescence following a 10 min incubation of PT2 (20 μM, final concentration) with 1×10^6 neutrophils from different donors (Power et al, J. Immunol. 159:2952-2959, 1997). Arachidonic acid (20:4, n-6) was used as a positive stimulator of the oxidase
Neutrophil respiratory burst was determined as previously described (Li et al, J. Clin. Invest. 97:1605-1609, 1996).

[10] = Formalin-induced pain test (hind paw licking time); assay type: in vivo; conditions: for % inhibition of pain response, Phase I (0-5 mins) / % inhibition of pain response, Phase II (15-20 mins): 30 min prior to formalin, mean of 5 animals
Protocol: as §2
Investigations of PT2 in the formalin-induced analgesia model looking specifically at the biphasic response have also been undertaken and are shown in Table 1. It is well documented that in this model, aspirin suppresses only pain related to the inflammatory process (15-20 mins post-administration of formalin), while morphine suppresses pain in both phases of the response (0-5 min and 15-20 min).
Compounds were administered intraperationedly (ip) 30 min prior to the administration of formalin (0.02 ml, 1% solution) via subplantar injection into the right hind paw. Reduction of the induced hind paw licking time recorded during the following 0-5 min period (Phase I response) or 15-20 min period (Phase II response) was determined. The data in Table 1 are the mean responses of 5 animals in each group.

[11] = tested on: E-selectin; assay: Adhesion molecule expression on HUVEC (ELISA, mRNA slot blot); assay type: cell-based, human; conditions: 20 μmol/l, 60 min pre-treatment
Protocol: (§3) FIG. 13 is a representation showing effect of MP3 (β-oxa-23:4n-6) and 20:4n-6 on time-related changes in TNF-α-induced E-selectin, ICAM-1 and VCAM-1 expression on HUVEC. HUVEC were pre-treated with 20 μmol/l β-oxa-23:4n-6 (closed triangles), 20 μmol/l 20:4n-6 (open squares), or DPC (control) for 60 min and then further incubated with TNF-α (125 U/200 μl medium) for up to 24 hr. The expression of E-selectin, ICAM-1 and VCAM-1 adhesion molecules was determined by ELISA. The results are expressed as % of control and represent the mean±SEM of three separate experiments each performed in triplicate. * p<0.05, **p<0.01, ***p<0.001, for significant differences between pre-treatment with fatty acid and corresponding control at a particular time point (one-way analysis of variance followed by the Dunnett test for multiple comparisons). Inset: The effect of β-oxa-23:4n-6 on TNF-α-induced expression of E-selectin mRNA in HUVEC. HUVEC were pre-incubated with β-oxa-23:4n-6 (20 μmol/l) or DPC (control) in 1 ml of medium at 37° C. for 60 min. After the addition of TNF-α, the cells were further incubated at 37° C. for 2 hr. E-selectin mRNA expression was then determined and the results expressed as relative %. Results are the mean±SEM of three separate experiments each performed in quadruplicate. *p<0.0001, for significant differences between pre-treatment with β-oxa-23:4n-6, and control (two-tailed Student's t-test for unpaired data).
(§4) HUVEC were stimulated with TNF, bacterial lipopolysaccharide (LPS) or PMA for 24 hr. Expression of E-selectin, ICAM-1 and VCAM-1 was determined by an enzyme-linked immunosorbent assay (ELISA) or as mRNA using a slot blot technique (Huang et al 1997 supra).

[12] = tested on: ICAM-1; assay: Adhesion molecule expression on HUVEC (ELISA); assay type: cell-based, human; conditions: 20 μmol/l, 60 min pre-treatment
Protocol: as §3, §4

[13] = tested on: VCAM-1; assay: Adhesion molecule expression on HUVEC (ELISA); assay type: cell-based, human; conditions: 20 μmol/l, 60 min pre-treatment
Protocol: as §3, §4

[14] = In vitro assays (not specified)

T3 sequence (P05771 1-673 isoform P05771-2): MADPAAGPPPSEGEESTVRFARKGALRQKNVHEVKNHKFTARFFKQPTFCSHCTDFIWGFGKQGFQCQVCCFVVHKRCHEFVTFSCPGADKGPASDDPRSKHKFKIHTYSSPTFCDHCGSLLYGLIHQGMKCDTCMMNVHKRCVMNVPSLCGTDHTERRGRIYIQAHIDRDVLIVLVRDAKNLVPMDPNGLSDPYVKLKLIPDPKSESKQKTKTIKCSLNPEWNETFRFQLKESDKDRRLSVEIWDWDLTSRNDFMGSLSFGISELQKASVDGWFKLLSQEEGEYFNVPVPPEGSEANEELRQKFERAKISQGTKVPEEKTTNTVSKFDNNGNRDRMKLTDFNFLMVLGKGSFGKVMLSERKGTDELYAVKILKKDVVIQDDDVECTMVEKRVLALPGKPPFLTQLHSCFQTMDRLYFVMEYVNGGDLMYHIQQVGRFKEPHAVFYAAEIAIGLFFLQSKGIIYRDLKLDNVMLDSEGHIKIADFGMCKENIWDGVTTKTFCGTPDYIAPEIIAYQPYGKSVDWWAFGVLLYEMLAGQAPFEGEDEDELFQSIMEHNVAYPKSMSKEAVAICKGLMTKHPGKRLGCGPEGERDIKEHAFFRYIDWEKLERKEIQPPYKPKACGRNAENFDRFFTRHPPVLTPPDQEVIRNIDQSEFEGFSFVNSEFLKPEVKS
T2 sequence (Q05655 whole entry): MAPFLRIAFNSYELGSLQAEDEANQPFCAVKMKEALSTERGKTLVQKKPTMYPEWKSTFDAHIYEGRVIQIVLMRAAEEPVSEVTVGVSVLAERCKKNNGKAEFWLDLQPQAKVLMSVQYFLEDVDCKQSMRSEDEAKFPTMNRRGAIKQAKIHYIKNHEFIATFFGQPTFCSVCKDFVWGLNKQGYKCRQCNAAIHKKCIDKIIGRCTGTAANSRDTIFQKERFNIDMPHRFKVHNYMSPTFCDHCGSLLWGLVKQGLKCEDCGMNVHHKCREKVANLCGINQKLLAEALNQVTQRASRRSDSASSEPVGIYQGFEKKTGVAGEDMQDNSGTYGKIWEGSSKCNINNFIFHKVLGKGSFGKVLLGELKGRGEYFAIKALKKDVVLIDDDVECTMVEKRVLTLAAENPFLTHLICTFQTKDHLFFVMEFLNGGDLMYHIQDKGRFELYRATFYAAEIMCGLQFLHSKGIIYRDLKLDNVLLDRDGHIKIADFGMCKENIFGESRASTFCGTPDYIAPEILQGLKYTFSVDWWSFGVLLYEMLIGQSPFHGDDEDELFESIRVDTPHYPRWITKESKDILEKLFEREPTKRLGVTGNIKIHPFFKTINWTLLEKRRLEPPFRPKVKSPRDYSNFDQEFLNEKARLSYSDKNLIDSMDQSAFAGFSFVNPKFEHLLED

Molecule: CC/C=C\C/C=C\C/C=C\C/C=C\C/C=C\C/C=C\CCC(=O)O [22:6n-3, docosahexaenoic acid, reference compound]
Inhibition of TNF-α-enhanced neutrophil adhesion to HUVEC [1]: no significant effect
inhibition at 20 µM [2]: < 50%

Inhibition of PKC activation, isozyme α [3]: +++
Inhibition of PKC activation, isozyme δ [4]: +++
Inhibition of PKC activation, isozyme β2 [5]: +++
Inhibition of PKC activation, isozyme ε [6]: +++
Molecule: CCCCCCCCCCCCCCCCCC(CCC(=O)O)(CCC(=O)O)[N+](=O)[O-] [Lx8]
Killing of cancer cells [7]: kills cells very poorly

Inhibition of PKC activation, isozyme α [3]: −
Inhibition of PKC activation, isozyme β2 [5]: +++
Molecule: CCCCC/C=C\C/C=C\C/C=C\C/C=C\CCCC(CCC(=O)O)(CCC(=O)O)[N+](=O)[O-] [Lx9]
Killing of cancer cells [7]: strong in killing cancer cells

Molecule: CCCCC/C=C\C/C=C\C/C=C\C/C=C\CCCC(=O)NC(CC(=O)O)C(=O)O (centres unmarked) [PT2]
Pain reduction in PQ writhing test [8]: reduced pain
Stimulation of the neutrophil respiratory burst [9]: lacks the ability to stimulate the neutrophil respiratory burst
% inhibition of pain response, Phase I (0-5 mins) ([10]; 30 mg/kg ip): 0%
% inhibition of pain response, Phase II (15-20 mins) ([10]; 30 mg/kg ip): 41%
% inhibition of pain response, Phase I (0-5 mins) ([10]; 100 mg/kg ip): 30%
% inhibition of pain response, Phase II (15-20 mins) ([10]; 100 mg/kg ip): 97%
Pain reduction in formalin test ([10]; intraperitoneal, 30 min before pain stimulus): reduced pain; also recorded: acts similarly to aspirin in having its major effect on the later phase of the pain response

Molecule: CCCCC/C=C\C/C=C\C/C=C\C/C=C\CCCC(=O)O [arachidonic acid, reference compound]
Inhibition of TNF-α-enhanced neutrophil adhesion to HUVEC [1]: no significant effect
Suppression of TNF-α-induced E-selectin expression on HUVEC [11]: no significant effect
Stimulation of the neutrophil respiratory burst [9]: able to elicit a strong respiratory burst
Suppression of TNF-α-induced ICAM-1 expression on HUVEC [12]: no significant effect
Suppression of TNF-α-induced VCAM-1 expression on HUVEC [13]: no significant effect

Molecule: β-oxa-23:0 [MP1]
Biological activity in in vitro assays [14]: biologically inactive
